Values after ≈ are worked out from the molar mass of the structure shown.
Experiments:
[1] = Inhibition of Escherichia coli topoisomerase IV by measuring relaxation activity incubated for 30 mins by fluorescence based assay
Escherichia coli [2] = experiment: Antibacterial activity against Escherichia coli ATCC 25922 assessed as reduction in bacterial cell growth incubated for 18 hrs by CSLI based broth microdilution method; assay type: functional
Staphylococcus aureus [3] = experiment: Antibacterial activity against Staphylococcus aureus ATCC 29213 assessed as reduction in bacterial cell growth incubated for 18 hrs by CSLI based broth microdilution method; assay type: functional
Escherichia coli [4] = experiment: Antibacterial activity against Escherichia coli ATCC 25922 in presence of PAbetaN by CLSI method; assay type: functional
Staphylococcus aureus [5] = experiment: Antibacterial activity against hospital-acquired Methicillin -resistant Staphylococcus aureus ATCC BAA-811 by CLSI method; assay type: functional
Staphylococcus aureus [6] = experiment: Antibacterial activity against community-acquired Methicillin -resistant Staphylococcus aureus ATCC BAA-1556 by CLSI method; assay type: functional
DNA gyrase = DNA gyrase (Escherichia coli, UniProt P0AES4+P0AES6); experiment: Inhibition of Escherichia coli DNA gyrase by measuring supercoiling activity incubated for 60 mins by fluorescence based assay; assay type: protein-complex assay
Escherichia coli [7] = experiment: Antibacterial activity against Escherichia coli ATCC 25922 by CLSI method; assay type: functional
Staphylococcus aureus [8] = experiment: Antibacterial activity against Staphylococcus aureus ATCC 29213 by CLSI method; assay type: functional
Enterococcus faecium [9] = experiment: Antibacterial activity against Enterococcus faecium ATCC 35667 by CLSI method; assay type: functional
Enterococcus faecium [10] = experiment: Antibacterial activity against vancomycin-resistant Enterococcus faecium ATCC 51559 by CLSI method; assay type: functional
Enterococcus faecalis [11] = experiment: Antibacterial activity against Enterococcus faecalis ATCC 29212 by CLSI method; assay type: functional
Enterococcus faecalis [12] = experiment: Antibacterial activity against vancomycin-resistant Enterococcus faecalis ATCC 51575 by CLSI method; assay type: functional
Streptococcus pneumoniae [13] = experiment: Antibacterial activity against Streptococcus pneumoniae ATCC 49619 by CLSI method; assay type: functional
Streptococcus anginosus = experiment: Antibacterial activity against Streptococcus anginosus ATCC 33397 by CLSI method; assay type: functional
Haemophilus influenzae = experiment: Antibacterial activity against Haemophilus influenzae ATCC 43095 by CLSI method; assay type: functional
[14] = biological target: DNA gyrase (Escherichia coli) (UniProt P0AES6+P0AES4); experiment: Potency index, ratio of IC50 of 4-(8-(methylamino)-2-oxo-1,2-dihydroquinoline-3-carboxamido)benzoic acid to IC50 of compound for inhibition of Escherichia coli DNA gyrase incubated for 60 mins by fluorescence based assay; assay type: protein-complex assay
Escherichia coli [15] = experiment: Potency index, ratio of MIC of 4-(8-(methylamino)-2-oxo-1,2-dihydroquinoline-3-carboxamido)benzoic acid to MIC of compound for antibacterial activity against Escherichia coli ATCC 25922; assay type: functional
[16] = biological target: T1, Cytoplasmic tyrosine-protein kinase BMX (Homo sapiens) (UniProt P51813); experiment: Inhibition of recombinant BMX (unknown origin) at 10 uM using fluorescence-labeled peptide as substrate incubated for 15 mins followed by substrate addition and measured after 90 mins by electrophoretic mobility assay relative to control; conditions: time 105.0 min
T1 sequence (whole entry): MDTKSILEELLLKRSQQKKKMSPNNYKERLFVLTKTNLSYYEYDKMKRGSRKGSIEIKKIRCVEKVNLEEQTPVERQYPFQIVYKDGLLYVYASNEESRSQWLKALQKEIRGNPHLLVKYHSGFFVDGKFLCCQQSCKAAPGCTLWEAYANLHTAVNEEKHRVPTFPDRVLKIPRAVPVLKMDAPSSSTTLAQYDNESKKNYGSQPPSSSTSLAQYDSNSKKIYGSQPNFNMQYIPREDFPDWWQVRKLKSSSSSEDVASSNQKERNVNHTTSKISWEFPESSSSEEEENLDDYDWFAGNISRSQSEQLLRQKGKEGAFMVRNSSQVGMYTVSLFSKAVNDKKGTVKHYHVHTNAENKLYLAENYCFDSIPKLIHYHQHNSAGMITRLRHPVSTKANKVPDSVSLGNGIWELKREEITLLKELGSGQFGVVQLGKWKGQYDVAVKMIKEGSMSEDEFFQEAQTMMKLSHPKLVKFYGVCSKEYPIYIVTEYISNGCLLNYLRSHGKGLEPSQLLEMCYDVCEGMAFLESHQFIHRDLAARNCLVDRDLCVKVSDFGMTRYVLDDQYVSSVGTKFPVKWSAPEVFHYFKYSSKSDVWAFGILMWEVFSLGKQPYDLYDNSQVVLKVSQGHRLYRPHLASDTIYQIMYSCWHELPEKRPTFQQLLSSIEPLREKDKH

Staphylococcus aureus [17] = experiment: Antibacterial activity against Methicillin-resistant Staphylococcus aureus by CLSI method; assay type: functional
[18] = biological target: DNA topoisomerase 2-alpha (Homo sapiens, UniProt P11388); experiment: Inhibition of human topoisomerase 2alpha; assay type: ADME
Chain of DNA topoisomerase 2-alpha (P11388 whole entry): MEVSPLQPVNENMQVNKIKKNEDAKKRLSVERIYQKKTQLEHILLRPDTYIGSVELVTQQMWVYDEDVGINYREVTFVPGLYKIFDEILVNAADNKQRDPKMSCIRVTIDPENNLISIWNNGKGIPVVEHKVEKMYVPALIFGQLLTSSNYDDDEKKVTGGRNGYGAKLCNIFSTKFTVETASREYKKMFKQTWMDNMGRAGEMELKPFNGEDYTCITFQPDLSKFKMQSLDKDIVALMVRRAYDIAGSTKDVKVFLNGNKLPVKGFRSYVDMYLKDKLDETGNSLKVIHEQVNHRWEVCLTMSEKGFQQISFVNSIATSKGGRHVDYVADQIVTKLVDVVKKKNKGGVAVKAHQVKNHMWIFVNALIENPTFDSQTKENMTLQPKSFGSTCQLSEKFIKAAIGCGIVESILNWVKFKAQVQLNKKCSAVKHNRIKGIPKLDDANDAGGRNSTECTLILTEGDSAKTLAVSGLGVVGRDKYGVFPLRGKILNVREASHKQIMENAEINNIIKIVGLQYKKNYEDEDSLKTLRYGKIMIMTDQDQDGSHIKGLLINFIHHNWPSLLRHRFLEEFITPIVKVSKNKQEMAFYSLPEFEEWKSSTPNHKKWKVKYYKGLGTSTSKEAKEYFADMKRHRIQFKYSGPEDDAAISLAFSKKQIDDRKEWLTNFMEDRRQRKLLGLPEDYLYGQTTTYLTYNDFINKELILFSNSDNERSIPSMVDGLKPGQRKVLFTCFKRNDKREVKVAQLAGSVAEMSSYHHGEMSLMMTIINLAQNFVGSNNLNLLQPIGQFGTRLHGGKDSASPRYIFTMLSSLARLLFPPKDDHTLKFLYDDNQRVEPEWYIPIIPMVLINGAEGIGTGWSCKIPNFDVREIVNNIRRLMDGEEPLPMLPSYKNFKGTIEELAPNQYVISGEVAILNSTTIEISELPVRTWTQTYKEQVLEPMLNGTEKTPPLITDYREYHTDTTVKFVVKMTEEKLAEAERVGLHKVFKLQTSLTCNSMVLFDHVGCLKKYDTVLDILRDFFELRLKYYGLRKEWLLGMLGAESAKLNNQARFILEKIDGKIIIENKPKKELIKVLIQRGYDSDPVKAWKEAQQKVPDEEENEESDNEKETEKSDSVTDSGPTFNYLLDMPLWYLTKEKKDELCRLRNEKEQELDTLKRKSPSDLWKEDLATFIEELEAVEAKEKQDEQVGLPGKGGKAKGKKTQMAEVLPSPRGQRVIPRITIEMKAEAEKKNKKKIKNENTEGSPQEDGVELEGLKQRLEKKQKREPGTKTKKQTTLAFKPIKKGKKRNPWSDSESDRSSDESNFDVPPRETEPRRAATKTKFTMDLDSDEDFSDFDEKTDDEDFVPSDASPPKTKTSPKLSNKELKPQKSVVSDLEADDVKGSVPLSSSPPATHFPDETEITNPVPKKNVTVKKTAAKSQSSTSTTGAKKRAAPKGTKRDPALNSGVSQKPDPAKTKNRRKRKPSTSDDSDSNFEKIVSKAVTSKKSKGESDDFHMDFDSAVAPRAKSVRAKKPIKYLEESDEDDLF

[19] = biological target: Voltage-gated inwardly rectifying potassium channel KCNH2 (Homo sapiens, UniProt Q12809); experiment: Inhibition of human ERG expressed in CHO cells by Q-patch clamp assay
Chain of Voltage-gated inwardly rectifying potassium channel KCNH2 (Q12809 whole entry): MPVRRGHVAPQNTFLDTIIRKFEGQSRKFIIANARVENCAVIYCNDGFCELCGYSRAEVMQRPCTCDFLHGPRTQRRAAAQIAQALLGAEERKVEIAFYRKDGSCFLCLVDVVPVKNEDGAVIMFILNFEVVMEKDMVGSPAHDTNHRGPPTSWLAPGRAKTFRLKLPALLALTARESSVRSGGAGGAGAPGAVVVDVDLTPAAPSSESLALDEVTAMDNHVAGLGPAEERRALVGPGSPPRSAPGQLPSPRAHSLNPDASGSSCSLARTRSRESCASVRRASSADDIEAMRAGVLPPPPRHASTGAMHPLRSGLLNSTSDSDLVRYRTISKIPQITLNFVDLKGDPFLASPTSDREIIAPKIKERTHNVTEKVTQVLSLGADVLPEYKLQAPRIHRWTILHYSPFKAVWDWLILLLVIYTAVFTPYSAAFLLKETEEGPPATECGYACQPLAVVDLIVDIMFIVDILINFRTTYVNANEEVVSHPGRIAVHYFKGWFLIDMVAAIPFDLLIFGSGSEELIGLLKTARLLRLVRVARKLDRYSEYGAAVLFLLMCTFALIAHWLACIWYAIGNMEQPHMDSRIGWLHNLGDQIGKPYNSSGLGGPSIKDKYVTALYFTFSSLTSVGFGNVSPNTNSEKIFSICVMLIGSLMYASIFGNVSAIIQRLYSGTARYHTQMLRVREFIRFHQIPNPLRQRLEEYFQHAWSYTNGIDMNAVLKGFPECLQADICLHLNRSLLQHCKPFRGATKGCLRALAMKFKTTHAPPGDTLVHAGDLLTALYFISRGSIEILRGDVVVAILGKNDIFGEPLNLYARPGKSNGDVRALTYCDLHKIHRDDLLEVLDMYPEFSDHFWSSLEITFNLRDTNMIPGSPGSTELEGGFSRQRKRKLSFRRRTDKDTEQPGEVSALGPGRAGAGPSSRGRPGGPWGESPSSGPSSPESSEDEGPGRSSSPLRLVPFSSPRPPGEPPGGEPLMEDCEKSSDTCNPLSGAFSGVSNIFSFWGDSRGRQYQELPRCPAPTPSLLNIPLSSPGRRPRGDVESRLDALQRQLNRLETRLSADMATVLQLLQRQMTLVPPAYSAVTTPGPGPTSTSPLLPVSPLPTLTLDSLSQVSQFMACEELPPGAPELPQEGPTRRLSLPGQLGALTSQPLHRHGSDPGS

[20] = Cytotoxicity against human HepG2 cells assessed as reduction in cell viability at 10 uM incubated for 48 hrs by CCK-8 assay; conditions: HepG2 cells
[21] = Cytotoxicity against human HepG2 cells assessed as reduction in cell viability at 50 uM incubated for 48 hrs by CCK-8 assay; conditions: HepG2 cells
Clostridioides difficile = experiment: Antibacterial activity against Clostridioides difficile ATCC 700057 by CLSI method; assay type: functional
[22] = test system: Peptostreptococcus anaerobius; experiment: Antibacterial activity against Peptostreptococcus anaerobius ATCC 27337 by CLSI method; assay type: functional
Bacteroides fragilis = experiment: Antibacterial activity against Bacteroides fragilis ATCC 25285 by CLSI method; assay type: functional
[23] = test system: Prevotella melaninogenica; experiment: Antibacterial activity against Prevotella melaninogenica JCM6325 by CLSI method; assay type: functional
Porphyromonas gingivalis = experiment: Antibacterial activity against Porphyromonas gingivalis JCM8525 by CLSI method; assay type: functional
Fusobacterium nucleatum = experiment: Antibacterial activity against Fusobacterium nucleatum JCM8532 by CLSI method; assay type: functional
Enterococcus = experiment: Antibacterial activity against Vancomycin-resistant Enterococcus by CLSI method; assay type: functional
Streptococcus pneumoniae [24] = experiment: Antibacterial activity against genotype penicillin-resistant Streptococcus pneumoniae by CLSI method; assay type: functional
[25] = Cmax in ICR mouse at 100 mg/kg, sc measured upto 24 hrs by LC-MS analysis; assay type: ADME, organism-based; set-up: route subcutaneous, dose 100 mg/kg, time 24 hrs; conditions: in vivo
[26] = Tmax in ICR mouse at 100 mg/kg, sc measured upto 24 hrs by LC-MS analysis; assay type: ADME, organism-based; conditions: in vivo
[27] = Half life in ICR mouse at 100 mg/kg, sc measured upto 24 hrs by LC-MS analysis; assay type: ADME, organism-based; conditions: in vivo
[28] = AUC (0 to 24 hrs) in ICR mouse at 100 mg/kg, sc measured upto 24 hrs by LC-MS analysis; assay type: ADME, organism-based; set-up: route subcutaneous, dose 100 mg/kg, time 24 hrs; conditions: in vivo

## CNc1cccc2cc(C(=O)Nc3ccc(C(=O)O)cc3)c(=O)[nH]c12
[1]
  IC50: 0.98 µM
Escherichia coli [2]
  MIC: 64 mg/L (≈ 190 µM)
Staphylococcus aureus [3]
  MIC: 16 mg/L (≈ 47.4 µM)
Escherichia coli [4]
  MIC: < 0.03 mg/L

## CNc1cc(F)cc2cc(C(=O)Nc3ccc(C(=O)O)cc3)c(=O)[nH]c12
Staphylococcus aureus [5]
  MIC: 8 mg/L (≈ 22.5 µM)
Staphylococcus aureus [6]
  MIC: 8 mg/L (≈ 22.5 µM)
DNA gyrase
  IC50: 0.00036 µM
[1]
  IC50: 0.219 µM
Escherichia coli [7]
  MIC: 16 mg/L (≈ 45 µM)
Escherichia coli [4]
  MIC: 0.015 mg/L
Staphylococcus aureus [8]
  MIC: 4 mg/L (≈ 11.3 µM)
Enterococcus faecium [9]
  MIC: 0.03 mg/L (≈ 0.0844 µM)
Enterococcus faecium [10]
  MIC: 0.015 mg/L (≈ 0.0422 µM)
Enterococcus faecalis [11]
  MIC: 0.015 mg/L (≈ 0.0422 µM)
Enterococcus faecalis [12]
  MIC: 0.015 mg/L (≈ 0.0422 µM)
Streptococcus pneumoniae [13]
  MIC: 0.03 mg/L (≈ 0.0844 µM)
Streptococcus anginosus
  MIC: 0.06 mg/L (≈ 0.169 µM)
Haemophilus influenzae
  MIC: 0.03 mg/L (≈ 0.0844 µM)
[14]
  Ratio IC50: 5
Escherichia coli [15]
  Ratio: 4

## CNc1cc(F)cc2c(O)c(C(=O)Nc3ccc(C(=O)O)cc3)c(=O)[nH]c12
[16]
  inhibition: 29%
Staphylococcus aureus [17]
  MIC50: 0.25 mg/L (≈ 0.673 µM)
  MIC90: 0.25 mg/L (≈ 0.673 µM)
Staphylococcus aureus [5]
  MIC: 0.5 mg/L (≈ 1.35 µM)
Staphylococcus aureus [6]
  MIC: 0.25 mg/L (≈ 0.673 µM)
DNA gyrase
  IC50: 0.0011 µM
[1]
  IC50: 0.0629 µM
Escherichia coli [7]
  MIC: 1 mg/L (≈ 2.69 µM)
Staphylococcus aureus [8]
  MIC: 0.25 mg/L (≈ 0.673 µM)
Enterococcus faecium [9]
  MIC: 0.008 mg/L (≈ 0.0215 µM)
Enterococcus faecium [10]
  MIC: 0.015 mg/L (≈ 0.0404 µM)
Enterococcus faecalis [11]
  MIC: 0.002 mg/L (≈ 0.00539 µM)
Enterococcus faecalis [12]
  MIC: 0.002 mg/L (≈ 0.00539 µM)
Streptococcus pneumoniae [13]
  MIC: 0.015 mg/L (≈ 0.0404 µM)
Streptococcus anginosus
  MIC: 0.03 mg/L (≈ 0.0808 µM)
Haemophilus influenzae
  MIC: ≤ 0.015 mg/L
[18]
  IC50: > 100 µM
[19]
  IC50: > 30 µM
[20]
  cytotoxicity at 48 h, 10 µM: 7.93%
[21]
  cytotoxicity at 48 h, 50 µM: 25.2%
Clostridioides difficile
  MIC: 0.25 mg/L (≈ 0.673 µM)
[22]
  MIC: 0.06 mg/L (≈ 0.162 µM)
Bacteroides fragilis
  MIC: 8 mg/L (≈ 21.5 µM)
[23]
  MIC: > 32 mg/L
Porphyromonas gingivalis
  MIC: 0.25 mg/L (≈ 0.673 µM)
Fusobacterium nucleatum
  MIC: 0.12 mg/L (≈ 0.323 µM)
Enterococcus
  MIC50: 0.008 mg/L (≈ 0.0215 µM)
  MIC90: 0.015 mg/L (≈ 0.0404 µM)
Streptococcus pneumoniae [24]
  MIC50: 0.03 mg/L (≈ 0.0808 µM)
  MIC90: 0.06 mg/L (≈ 0.162 µM)
[25]
  Cmax: 12.4 µg/mL
[26]
  Tmax: 0.25 h
[27]
  half-life: 6.79 h
[28]
  AUC(0-t) at 24 h: 16 µg·h/mL
